Experimental data reported in the supplement of paper PMC10307832.

Key:
Assay in all cases: relative viability (nuclei count vs DMSO), 5 days (fraction); higher = more cells survive
[1] = compound: CC1=CC(=NN1)NC2=CC(=NC(=N2)/C=C/C3=CC=CC=C3)N4CCN(CC4)C
In short: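 Hoechst staining, done together with fixation and permeabilisation, marked nuclei for 4× imaging and MetaXpress counting. This followed 5 days without medium change after lung cancer cell lines, kept overnight at 37 °C in 1536-well plates, were pinned with five library-drug doses (not always all listed) spaced by √10 on vehicle-anchored plates. Viability is the ratio of treated-well to vehicle-well nuclei, expressed as a median across plates. Plates passed only at control CV below 25% with at least one doubling.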

Bortezomib + Dasatinib = compound: CC(C)C[C@H](NC(=O)[C@H](Cc1ccccc1)NC(=O)c1cnccn1)B(O)O [Bortezomib] + Cc1nc(Nc2ncc(C(=O)Nc3c(C)cccc3Cl)s2)cc(N2CCN(CCO)CC2)n1 [Dasatinib] (partner 0.075 µM)
In short: (§1)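 Nuclei were stained with Hoechst during a one-step fixation (final 0.05% Triton X-100, 1% formaldehyde, 1 ug/ml Hoechst) carried out 5 days after dosing, then counted on 4× images. The cells, lung cancer lines in 1536-well plates, had been dosed by pin tool the day after seeding with one drug alone or a fixed anchor-drug dose plus five library-drug doses (not always all listed) in √10 steps. Relative viability is the nuclei count in treated wells divided by that in vehicle wells, and each value is the median of duplicate plates.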

[2] = compound: CC1=CC(=NN1)NC2=CC(=NC(=N2)/C=C/C3=CC=CC=C3)N4CCN(CC4)C + CC(=O)c1c(C)c2cnc(Nc3ccc(N4CCNCC4)cn3)nc2n(C2CCCC2)c1=O [Palbociclib] (partner 0.5 µM)
In short: as §1

[3] = compound: CC1=CC(=NN1)NC2=CC(=NC(=N2)/C=C/C3=CC=CC=C3)N4CCN(CC4)C + Nc1nc2[nH]cc(CCc3ccc(C(=O)N[C@@H](CCC(=O)O)C(=O)O)cc3)c2c(=O)[nH]1 [Pemetrexed] (partner 0.2 µM)
In short: as §1

## IA-LM
[1]; 0.08 µM
  relative viability: 0.852
[1]; 0.253 µM
  relative viability: 1.07
[1]; 0.8 µM
  relative viability: 1.1
[1]; 2.53 µM
  relative viability: 0.866
[1]; 8 µM
  relative viability: 0.231

## LC-2-ad
[1]; 0.08 µM
  relative viability: 1.02
[1]; 0.253 µM
  relative viability: 0.996
[1]; 0.8 µM
  relative viability: 0.799
[1]; 2.53 µM
  relative viability: 0.303
[1]; 8 µM
  relative viability: 0.177
Bortezomib + Dasatinib; first compound 0.0002 µM
  relative viability: 0.52
Bortezomib + Dasatinib; first compound 0.000632 µM
  relative viability: 0.332
Bortezomib + Dasatinib; first compound 0.002 µM
  relative viability: 0.6
Bortezomib + Dasatinib; first compound 0.006325 µM
  relative viability: 0.149
Bortezomib + Dasatinib; first compound 0.02 µM
  relative viability: 0.187
[2]; first compound 0.08 µM
  relative viability: 0.552
[2]; first compound 0.253 µM
  relative viability: 0.488
[2]; first compound 0.8 µM
  relative viability: 0.413
[2]; first compound 2.53 µM
  relative viability: 0.298
[2]; first compound 8 µM
  relative viability: 0.18
[3]; first compound 0.08 µM
  relative viability: 0.263
[3]; first compound 0.253 µM
  relative viability: 0.266
[3]; first compound 0.8 µM
  relative viability: 0.269
[3]; first compound 2.53 µM
  relative viability: 0.187
[3]; first compound 8 µM
  relative viability: 0.143

## LCLC-97TM1
[1]; 0.08 µM
  relative viability: 0.911
[1]; 0.253 µM
  relative viability: 0.963
[1]; 0.8 µM
  relative viability: 0.912
[1]; 2.53 µM
  relative viability: 0.504
[1]; 8 µM
  relative viability: 0.121
Bortezomib + Dasatinib; first compound 0.0002 µM
  relative viability: 0.738
Bortezomib + Dasatinib; first compound 0.000632 µM
  relative viability: 0.732
Bortezomib + Dasatinib; first compound 0.002 µM
  relative viability: 0.862
Bortezomib + Dasatinib; first compound 0.006325 µM
  relative viability: 0.718
Bortezomib + Dasatinib; first compound 0.02 µM
  relative viability: 0.148
[2]; first compound 0.08 µM
  relative viability: 0.246
[2]; first compound 0.253 µM
  relative viability: 0.201
[2]; first compound 0.8 µM
  relative viability: 0.201
[2]; first compound 2.53 µM
  relative viability: 0.168
[2]; first compound 8 µM
  relative viability: 0.0556
[3]; first compound 0.08 µM
  relative viability: 0.186
[3]; first compound 0.253 µM
  relative viability: 0.226
[3]; first compound 0.8 µM
  relative viability: 0.161
[3]; first compound 2.53 µM
  relative viability: 0.164
[3]; first compound 8 µM
  relative viability: 0.0709

## LCLC-103H
[1]; 0.08 µM
  relative viability: 0.998
[1]; 0.253 µM
  relative viability: 1.07
[1]; 0.8 µM
  relative viability: 1.02
[1]; 2.53 µM
  relative viability: 0.835
[1]; 8 µM
  relative viability: 0.694
Bortezomib + Dasatinib; first compound 0.0002 µM
  relative viability: 0.461
Bortezomib + Dasatinib; first compound 0.000632 µM
  relative viability: 0.486
Bortezomib + Dasatinib; first compound 0.002 µM
  relative viability: 0.435
Bortezomib + Dasatinib; first compound 0.006325 µM
  relative viability: 0.161
Bortezomib + Dasatinib; first compound 0.02 µM
  relative viability: 0.123
[2]; first compound 0.08 µM
  relative viability: 0.44
[2]; first compound 0.253 µM
  relative viability: 0.438
[2]; first compound 0.8 µM
  relative viability: 0.491
[2]; first compound 2.53 µM
  relative viability: 0.422
[2]; first compound 8 µM
  relative viability: 0.349
[3]; first compound 0.08 µM
  relative viability: 0.476
[3]; first compound 0.253 µM
  relative viability: 0.465
[3]; first compound 0.8 µM
  relative viability: 0.458
[3]; first compound 2.53 µM
  relative viability: 0.516
[3]; first compound 8 µM
  relative viability: 0.359
